One compound from the NIST ThermoML archive (doi:10.1016/j.jct.2019.03.001) can be followed below.

A short description of the data set: refractive index (Na D-line) (dimensionless). The following applies: 293.15 K; 101.33 kPa; Liquid; Standard Abbe refractometry.

Numbers after ± are expanded uncertainties.

In the case of `CCCCO` [butan-1-ol], the refractive index is on record as 1.3993 ± 0.0007.
